Measured values as given in paper PMC7156458, “Synthetic biology based construction of biological activity-related library of fungal decalin-containing diterpenoid pyrones” (Nature Communications, 2020).
Where two headings read alike, the source gives them in different places.

Columns and labels:
Format in all cases: cell-based
DL1 cells = experiment: cytotoxicity in Drosophila DL1 cells; details: DL1 cells; for % viability, viability 1: replicate 1, relative to DMSO 1%; for % viability, viability 2: replicate 2, relative to DMSO 1%; for IC50: cytotoxicity
Protocol: (§1) We screened the DDPs on the Drosophila assay system for cytotoxicity, inhibitory activity of innate immune signalling and insecticidal activity. The cytotoxicity of the DDPs was evaluated using two cell lines, embryonic macrophage-derived DL1 cells[58]–[60] and larval blood cell-derived l(2)mbn cells, and their IC50 values are listed in Supplementary Table 23.

[1] = tested on: human immunodeficiency virus-1 (HIV-1); experiment: anti-HIV MAGI assay; details: Human immunodeficiency virus 1, MAGI, average of numeric determinations
Source text: We examined the inhibitory activities of DDPs against various species of bacteria (both gram-negative and gram-positive bacteria), fungi and viruses. […] In contrast, preliminary screening of the DDPs for anti-viral agents with hepatitis B virus (HBV), measles virus (MV), Epstein-Barr virus (EBV), herpes simplex virus (HSV) and human immunodeficiency virus-1 (HIV-1) indicated their selective inhibition of HIV.

[2] = cytotoxicity in Drosophila DL1 cells; details: Drosophila, DL1 cells (embryonic macrophage-derived), DL1 cells
Protocol: as §1

[3] = replicate 1, relative to DMSO 1%, read-out: % viability, viability 1
[4] = replicate 2, relative to DMSO 1%, read-out: % viability, viability 2

Row | Compound | Luminescence Raw1 (DL1 cells; 0.04 µM, replicate 1) | % viability, viability 1 (DL1 cells; 0.04 µM) [%] | Luminescence Raw2 (DL1 cells; 0.04 µM, replicate 2) | % viability, viability 2 (DL1 cells; 0.04 µM) [%] | Luminescence Raw1 (DL1 cells; 0.2 µM, replicate 1) | % viability, viability 1 (DL1 cells; 0.2 µM) [%] | Luminescence Raw2 (DL1 cells; 0.2 µM, replicate 2) | % viability, viability 2 (DL1 cells; 0.2 µM) [%] | Luminescence Raw1 (DL1 cells; 1 µM, replicate 1) | % viability, viability 1 (DL1 cells; 1 µM) [%] | Luminescence Raw2 (DL1 cells; 1 µM, replicate 2) | % viability, viability 2 (DL1 cells; 1 µM) [%] | Luminescence Raw1 (DL1 cells; 4 µM, replicate 1) | % viability, viability 1 (DL1 cells; 4 µM) [%] | Luminescence Raw2 (DL1 cells; 4 µM, replicate 2) | % viability, viability 2 (DL1 cells; 4 µM) [%] | Luminescence Raw1 (DL1 cells; 10 µM, replicate 1) | Luminescence Raw2 (DL1 cells; 10 µM, replicate 2) | Luminescence Raw1 (DL1 cells; 20 µM, replicate 1) | Luminescence Raw2 (DL1 cells; 20 µM, replicate 2) | also measured
1 | C=C1CCC2C(C)(CCC=C(C)C)C(O)CCC2(C)C1Cc1c(OC)oc(C)c(C)c1=O (stereo not drawn) [Compound 15, viridoxin A hydrolysate] | 2784909 | 203.06 | 3009267 | 219.419 | 2743429 | 200.035 | 2853442 | 208.057 | 2896366 | 211.186 | 3157521 | 230.228 | 726344 | 52.9608 | 1230470 | 89.7188 | 281027 | 344848 | 282109 | 296532 | % viability, viability 1 (DL1 cells; 10 µM): 20.4909%; % viability, viability 2 (DL1 cells; 10 µM): 25.1443%; % viability, viability 1 (DL1 cells; 20 µM): 20.5698%; % viability, viability 2 (DL1 cells; 20 µM): 21.6214%; IC50 (DL1 cells; average±SEM): 6.1 ± 1.57 µM; IC50 (DL1 cells; read-out: IC50 (1), replicate 1): 4.53 µM; IC50 (DL1 cells; read-out: IC50 (2), replicate 2): 7.66 µM; IC50 (DL1 cells; read-out: IC50 Average, average of two replicates): 6.1 µM; EC50 ([1]; read-out: Avg. EC50 (nM), anti-HIV): 8.51 nM
2 | C=C1CCC2C(C)(CCC=C(C)C)C(O)CCC2(C)C1Cc1c(O)c(C)c(C)oc1=O (stereo not drawn) [Compound 4] | 2757856 | 201.087 | 3026942 | 220.707 | 2720705 | 198.378 | 3168342 | 231.017 | 2448745 | 178.548 | 2704113 | 197.168 | 345570 | 25.197 | 345209 | 25.1707 | 299777 | 341603 | 287878 | 302301 | % viability, viability 1 (DL1 cells; 10 µM): 21.858%; % viability, viability 2 (DL1 cells; 10 µM): 24.9077%; % viability, viability 1 (DL1 cells; 20 µM): 20.9904%; % viability, viability 2 (DL1 cells; 20 µM): 22.0421%; IC50 (DL1 cells; average of two replicates, read-out: IC50 Average): 1.54 µM; IC50 (DL1 cells; average±SEM, read-out: IC50): 1.54 ± 0.08 µM; IC50 (DL1 cells; replicate 1, read-out: IC50 (1)): 1.61 µM; IC50 (DL1 cells; replicate 2, read-out: IC50 (2)): 1.46 µM; EC50 ([1]; anti-HIV, read-out: Avg. EC50): 592 nM
3 | CC(C)=CCC/C(C)=C/CC/C(C)=C/CC/C(C)=C/Cc1c(O)c(C)c(C)oc1=O [Compound 2] | – | – | – | – | – | – | – | – | – | – | – | – | – | – | – | – | – | – | – | – | EC50 ([1]; anti-HIV, read-out: Avg. EC50): 157 nM
4 | C=C1CCC2C(C)(CC(=O)C=C(C)C)C(O)CCC2(C)C1Cc1c(OC)oc(C)c(C)c1=O (stereo not drawn) [Compound 25] | 2772839 | – | 2800252 | – | 2673287 | – | 2657777 | – | 2635775 | – | 2736769 | – | 2684468 | – | 2551374 | – | 2257781 | 2619904 | 396244 | 560668 | viability at 0.04 µM [2, 3]: 135%; viability at 0.04 µM [2, 4]: 136%; viability at 0.2 µM [2, 3]: 130%; viability at 0.2 µM [2, 4]: 129%; viability at 1 µM [2, 3]: 128%; viability at 1 µM [2, 4]: 133%; viability at 4 µM [2, 3]: 130%; viability at 4 µM [2, 4]: 124%; viability at 10 µM [2, 3]: 110%; viability at 10 µM [2, 4]: 127%; viability at 20 µM [2, 3]: 19.2%; viability at 20 µM [2, 4]: 27.2%; IC50 (DL1 cells; Drosophila melanogaster, average of two replicates, read-out: IC50 Average): 17.2 µM; IC50 (DL1 cells; Drosophila melanogaster, average±SEM, read-out: IC50): 17.2 ± 2.06 µM; IC50 (DL1 cells; Drosophila melanogaster, replicate 1, read-out: IC50 (1)): 15.1 µM; IC50 (DL1 cells; Drosophila melanogaster, replicate 2, read-out: IC50 (2)): 19.2 µM
